Key:
[1] = target: T1, CDK7/Cyclin H/MAT-1 complex (Homo sapiens, UniProt P50613); assay: Flint assay, end-point fluorescence (5 nM CDK7/Cyclin H/MAT-1 complex); assay type: biochemical; conditions: for IC50: read-out: CDK7 (5 nM) pIC50 (converted)
T1 construct: Human CDK7 (amino acids 1-346); His6 (N); TEV protease cleavage site (N); made in house; host or cells: baculovirus-SF9 insect cells
Experimental: Human CDK7 (amino acids 1-346) containing an N-terminal His6-tag followed by a tobacco etch virus (TEV) protease cleavage site, human MAT1 (amino acids 1-309) and human cyclin H (amino acids 1-323) were co-expressed in the baculovirus-SF9 insect cell expression system to generate a trimeric complex. Cell pellets were collected 72 h post-infection and were resuspended by Dounce homogenization in 20 mM Hepes-NaOH (pH 8.0), 300 mM NaCl, 10% glycerol, 2 mM dithiothreitol DTT), and 20 mM Imidazole supplemented with cOmplete™ Protease Inhibitor Cocktail (Roche) and 25 U/mL Benzonase® Nuclease HC according to the manufacturer's instructions. Cells were lysed by passing through a Microfluidics M110Y Microfluidizer 3 times at 600 kPa followed by centrifugation at 38,000×g at 4° C. for 1 hour. The supernatant was loaded onto a pre-equilibrated HisTrap HP column and eluted in 20 mM Hepes-NaOH (pH 8.0), 50 mM NaCl, 10% glycerol, 2 mM DTT, and 400 mM Imidazole. The eluate was further purified by gel filtration on a Superdex S200 16/60 column and eluted with 20 mM Hepes-NaOH (pH 7.5), 50 mM NaCl, 10% Glycerol, 2 mM DTT. Fractions containing a trimeric complex of CDK7, cyclin H, and MAT1 in a 1:1:1 ratio were pooled and concentrated to 3 mg/mL in a 10 kDa MWCO concentrator, and diluted to a final concentration of 1.6 mg/mL in 11.1 mM Hepes-NaOH (pH 8.0), 27.8 mM NaCl, 1.1 mM DTT and 50% glycerol.
Compounds with potencies approaching the limit of detection of the assay (IC50≤10 nM) were further assessed in a more sensitive fluorescence end-point assay.
[formula] where νo is the rate in the absence of inhibitor, νmin is the rate at highest inhibitor concentration, and h is the Hill coefficient. Flint Assay (5 nM CDK7/Cyclin H/MAT-1 Complex)
The continuous absorbance assay was converted to an end-point fluorescence assay following the NADH fluorescence signal decrease at the excitation and emission wavelengths of 340 nm and 440 nm, respectively.
Under the same concentrations of substrates and coupling reagents used in the absorbance assay, the fluorescence assay was performed at a reduced concentration of the CDK7/Cyclin H/MAT-1 complex of 5 nM (final concentration) with a reaction time of 24 hours. The percent of inhibition was calculated by the following equation. Percent of inhibition=(Sample−NC)/(PC−NC)*100 where NC is the mean if negative control (reaction without inhibitor), and PC is the mean of positive control (reaction with complete inhibition).
Dosing curves were fitted using the following equation to obtain IC50: Y=Bottom+(Top−Bottom)/(1+10^((log IC50−X)*Hill slope)) where X=log10 of the compound concentration; top and bottom can be defined by PC and NC respectively. Imaging-Based Cellular RNA PolII Ser5 Phosphorylation Assay

[2] = tested on: RNA polymerase II Serine 5 phosphorylation (Rpb1 CTD), downstream substrate of CDK7; assay: Imaging-based cellular RNA PolII Ser5 phosphorylation assay in A549 cells; assay type: cell-based, human; conditions: Homo sapiens, A549, 3 h, challenged with compound for 3 hours, read-out: pRNA polII Ser5 (A549) pIC50 (converted)
Summary of the method: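 A549 cells seeded 20 h in DMEM with 1% FBS, then exposed to compound for 3 h at 37 °C; fixed, methanol-permeabilized and immunostained for phospho-Rpb1 CTD Ser5, read by automated imaging. Signal normalized to DMSO (high) and 10 μM LDC4297 (low) controls; IC50 from four-parameter fit of % control vs concentration.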

T1 sequence (P50613 whole entry, the tested form may be a part): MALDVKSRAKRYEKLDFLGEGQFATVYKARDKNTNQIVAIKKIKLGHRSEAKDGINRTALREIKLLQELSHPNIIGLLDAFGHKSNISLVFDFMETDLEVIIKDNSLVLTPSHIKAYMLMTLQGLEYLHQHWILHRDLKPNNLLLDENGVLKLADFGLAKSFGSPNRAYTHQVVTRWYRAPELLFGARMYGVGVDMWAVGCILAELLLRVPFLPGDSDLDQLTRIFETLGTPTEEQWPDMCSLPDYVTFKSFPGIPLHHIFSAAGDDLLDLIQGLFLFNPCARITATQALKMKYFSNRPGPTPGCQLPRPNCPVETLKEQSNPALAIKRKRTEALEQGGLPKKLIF
T1 sequence (P51946 whole entry partner, the tested form may be a part): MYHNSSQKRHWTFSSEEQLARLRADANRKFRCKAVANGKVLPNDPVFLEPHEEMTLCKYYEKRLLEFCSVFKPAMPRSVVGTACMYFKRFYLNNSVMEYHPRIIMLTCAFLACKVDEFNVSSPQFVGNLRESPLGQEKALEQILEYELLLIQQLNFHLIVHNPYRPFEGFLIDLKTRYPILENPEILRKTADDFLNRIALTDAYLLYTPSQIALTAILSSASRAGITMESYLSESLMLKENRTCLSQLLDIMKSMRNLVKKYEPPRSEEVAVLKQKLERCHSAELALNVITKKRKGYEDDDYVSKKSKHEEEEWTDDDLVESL
T1 sequence (P51948 whole entry partner, the tested form may be a part): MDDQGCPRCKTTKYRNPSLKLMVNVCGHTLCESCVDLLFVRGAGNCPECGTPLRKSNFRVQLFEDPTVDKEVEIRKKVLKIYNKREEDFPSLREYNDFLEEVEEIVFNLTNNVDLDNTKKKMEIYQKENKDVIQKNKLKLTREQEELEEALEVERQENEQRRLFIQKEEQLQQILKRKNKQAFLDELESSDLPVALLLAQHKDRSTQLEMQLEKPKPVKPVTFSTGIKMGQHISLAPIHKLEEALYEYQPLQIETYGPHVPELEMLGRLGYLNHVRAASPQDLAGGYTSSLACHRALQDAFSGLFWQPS

SMILES	CDK7 (5 nM) pIC50 [1]	IC50 [2]	IC50 [1]
C[C@@H]1Cc2cnc(NC3CCN(CC(F)(F)F)CC3)nc2CN1C(=O)[C@H]1CCN(C)C[C@@H]1c1ccccc1 [Compound 45]	7.65	0.437 µM	–
C[C@@H]1Cc2cnc(NCc3cc[nH]n3)nc2CN1C(=O)[C@H]1CCN(C)C[C@@H]1c1ccccc1 [Compound 51]	–	1.32 µM	0.00832 µM
Cc1ccc([C@@H]2CN(C)CC[C@H]2C(=O)N2Cc3nc(NC4CCOCC4)ncc3C[C@H]2C)cn1 (relative stereo) [Compound 108]	–	1.7 µM	0.0195 µM
C[C@@H]1Cc2cnc(Nc3cnn4c3CCCC4)nc2CN1C(=O)[C@H]1CCN(C)C[C@@H]1c1ccccc1 [Compound 77]	7.88	0.316 µM	–
C[C@@H]1Cc2cnc(NCc3ccn(C)c3)nc2CN1C(=O)[C@H]1CCN(C)C[C@@H]1c1ccccc1 [Compound 60]	–	0.214 µM	0.00355 µM
Cc1ccc(CNc2ncc3c(n2)CN(C(=O)[C@H]2CCN(C)C[C@@H]2c2ccccc2)[C@H](C)C3)o1 [Compound 50]	8.05	0.0724 µM	–
CC(C)n1cc(Nc2ncc3c(n2)CN(C(=O)[C@H]2CCN(C)C[C@@H]2c2ccccc2)[C@H](C)C3)cn1 [Compound 89]	<6.7	0.0708 µM	–
CN1CC[C@H](C(=O)N2Cc3nc(NCc4ccn(C)n4)ncc3CC2(C)C)[C@@H](c2ccccc2)C1 (single isomer, unassigned) [Compound 191]	7.41	~4.27 µM	–
CO[C@H]1CC[C@H](Nc2ncc3c(n2)CN(C(=O)[C@H]2CCN(C)C[C@@H]2c2ccc(C)nc2)[C@H](C)C3)CC1 (relative stereo) [Compound 110]	–	0.437 µM	0.0129 µM
C[C@H]1Cc2cnc(NC3(c4ccccc4)COC3)cc2CN1C(=O)[C@H]1CCN(C)C[C@@H]1c1ccccc1 (single isomer, unassigned) [Compound 175]	8.13	0.166 µM	–
C[C@@H]1Cc2cnc(NCc3ccccc3)nc2CN1C(=O)[C@H]1CCN(CC2COC2)C[C@@H]1c1ccccc1 (single isomer, unassigned) [Compound 155]	8.2	0.537 µM	–
C[C@@H]1Cc2cnc(Nc3cnn(CC(C)(C)O)c3)nc2CN1C(=O)[C@H]1CCN(C)C[C@@H]1c1ccccc1 [Compound 74]	8.0	0.178 µM	–
C[C@@H]1c2nc(NC3CCOCC3)ncc2[C@@H](C)CN1C(=O)[C@H]1CCN(C)C[C@@H]1c1ccccc1 [Compound 180a]	8.68	~0.0324 µM	–
Cc1cccc([C@H]2CN(C)CC[C@@H]2C(=O)N2Cc3nc(NC4CCOCC4)ncc3C[C@H]2C)c1 [Compound 93]	8.52	~0.0676 µM	–
C[C@@H]1Cc2cnc(NC(C)(C)c3cnn(C)c3)nc2CN1C(=O)[C@H]1CCN(C)C[C@@H]1c1ccccc1 [Compound 90]	7.57	5.01 µM	–
C[C@H](Nc1ncc2c(n1)CN(C(=O)[C@H]1CCN(C)C[C@@H]1c1ccccc1)[C@H](C)C2)c1ccn(C)n1 (single isomer, unassigned) [Compound 55]	–	4.47 µM	0.0389 µM
C[C@@H]1Cc2cnc(NC[C@H]3CCOC3)nc2CN1C(=O)[C@H]1CCN(C)C[C@@H]1c1ccccc1 [Compound 53]	7.99	0.575 µM	–
C[C@@H]1Cc2cnc(NC3CCN(S(C)(=O)=O)CC3)nc2CN1C(=O)N1CCN(C)C[C@@H]1c1ccccc1 [Compound 209]	8.48	0.209 µM	–
C[C@@H]1Cc2cnc(N[C@H]3CCC[C@H](O)C3)nc2CN1C(=O)[C@H]1CCN(C)C[C@@H]1c1ccccc1 [Compound 59]	8.28	0.141 µM	–
CO[C@H]1CC[C@H](Nc2ncc3c(n2)CN(C(=O)[C@H]2CCN(C)C[C@@H]2c2ccccc2)[C@H](C)C3)CC1 [Compound 37]	8.6	~0.0339 µM	–
C[C@@H]1Cc2cnc(N[C@H]3CC[C@H](O)CC3)nc2CN1C(=O)[C@H]1CCN(C)C[C@@H]1c1ccccc1 [Compound 12]	8.49	0.0933 µM	–

— patent US12679839B2, “Cyclin-dependent kinase 7 (CDK7) non-covalent inhibitors” (JANSSEN PHARMACEUTICA NV, priority 2020, dated 2026)
